In US9303026B2, “Antiviral agents” (Biota Scientific Management Pty Ltd, priority 2000, dated 2016):

Experiment: Cytotoxicity in uninfected treated cultures (CC50)
Type: cell-based
Details: human, uninfected MRC-5 human embryo lung cells; Table 7; concentration yielding 50% cytotoxicity, uninfected MRC-5 cells

`CSc1nc2ccc(OCCC3CCN(c4ccc(C)nn4)CC3)cc2o1` [Compound 4, 6-{2-[1-(6-Methyl-3-pyridazinyl)-4-piperidinyl]ethoxy}-2-methylthiobenzoxazole] showed a CC50 greater than 1 µg/mL.
